For 2 compounds, mutagenic call results are on record in PubChem BioAssay AID1259407 (Chemical Carcinogenesis Research Information System (CCRIS), 2018).

For this data set, the system named is CCRIS mutagenicity, Ames/micronucleus/aberration tests. Nature of the data set: CCRIS mutagenicity studies.

The structures appear in SMILES notation. Active and inactive are the calls of the source. The rule behind the calls is not given here.

In the case of `Cc1ccc2n[nH]nc2c1`, the mutagenic call is “inactive; negative” (Test System: AMES SALMONELLA TYPHIMURIUM, Strain/Indicator: TA97, Metabolic Activation: NONE); “inactive; negative” (Test System: AMES SALMONELLA TYPHIMURIUM, Strain/Indicator: TA97, Metabolic Activation: RAT, LIVER, S-9, AROCLOR 1254); “inactive; negative” (Test System: AMES SALMONELLA TYPHIMURIUM, Strain/Indicator: TA98, Metabolic Activation: NONE); “inactive; negative” (Test System: AMES SALMONELLA TYPHIMURIUM, Strain/Indicator: TA98, Metabolic Activation: RAT, LIVER, S-9, AROCLOR 1254); “inactive; negative” (Test System: AMES SALMONELLA TYPHIMURIUM, Strain/Indicator: TA100, Metabolic Activation: NONE); “inactive; negative” (Test System: AMES SALMONELLA TYPHIMURIUM, Strain/Indicator: TA100, Metabolic Activation: RAT, LIVER, S-9, AROCLOR 1254). The mutagenic call runs as follows: (Test System: AMES SALMONELLA TYPHIMURIUM, Strain/Indicator: TA102, Metabolic Activation: NONE) “inactive; negative”; (Test System: AMES SALMONELLA TYPHIMURIUM, Strain/Indicator: TA102, Metabolic Activation: RAT, LIVER, S-9, AROCLOR 1254) “inactive; negative”.
In the case of `O=C1c2ccccc2C(=O)N1SC(Cl)(Cl)Cl`, the mutagenic call (Test System: AMES SALMONELLA TYPHIMURIUM, Strain/Indicator: TA98, Metabolic Activation: NONE, Method: STANDARD PLATE) was “inactive; negative”; the mutagenic call (Test System: AMES SALMONELLA TYPHIMURIUM, Strain/Indicator: TA100, Metabolic Activation: NONE, Method: PREINCUBATION) was “active; positive”; the mutagenic call (Test System: AMES SALMONELLA TYPHIMURIUM, Strain/Indicator: TA100, Metabolic Activation: RAT, LIVER, S-9, AROCLOR 1254, Method: STANDARD PLATE) was “active; positive”; the mutagenic call (Test System: AMES SALMONELLA TYPHIMURIUM, Strain/Indicator: TA100, Metabolic Activation: RAT, LIVER, S-9, Method: STANDARD PLATE) is “active; positive”; the mutagenic call (Test System: AMES SALMONELLA TYPHIMURIUM, Strain/Indicator: TA100, Metabolic Activation: S-9 MIX, Method: STANDARD PLATE) is “active; positive”; the mutagenic call (Test System: AMES SALMONELLA TYPHIMURIUM, Strain/Indicator: TA102, Metabolic Activation: NONE, Method: STANDARD PLATE) is “inactive; negative”. Besides, the mutagenic call (Test System: AMES SALMONELLA TYPHIMURIUM, Strain/Indicator: TA104, Metabolic Activation: NONE, Method: STANDARD PLATE) was “active; positive”; the mutagenic call (Test System: AMES SALMONELLA TYPHIMURIUM, Strain/Indicator: TA104, Metabolic Activation: RAT, LIVER, S-9, PHENOBARBITAL, Method: STANDARD PLATE) is “active; positive”; the mutagenic call (Test System: AMES SALMONELLA TYPHIMURIUM, Strain/Indicator: TA1535, Metabolic Activation: NONE, Method: STANDARD PLATE) is “active; positive”; the mutagenic call (Test System: AMES SALMONELLA TYPHIMURIUM, Strain/Indicator: TA1535, Metabolic Activation: RAT, LIVER, S-9, AROCLOR 1254, Method: STANDARD PLATE) was “active; positive”; the mutagenic call (Test System: E. COLI, Strain/Indicator: WP2, Metabolic Activation: NONE, Method: STANDARD PLATE) was “active; positive”; the mutagenic call (Test System: E. COLI, Strain/Indicator: WP2, Metabolic Activation: RAT, LIVER, S-9, Method: STANDARD PLATE) is “active; positive”. Besides, the mutagenic call was “active; positive” (Test System: E. COLI, Strain/Indicator: WP2 UVRA, Metabolic Activation: NONE, Method: STANDARD PLATE) and “active; positive” (Test System: E. COLI, Strain/Indicator: WP2 UVRA, Metabolic Activation: RAT, LIVER, S-9, AROCLOR 1254, Method: STANDARD PLATE).
